In publication PMC10568492 (Journal of medicinal chemistry, 2023):
Marks after values point to notes of the source that are not given here.

Columns and labels:
Oral exposure in mice = type: in vivo, mouse; settings: for Plasma drug concentration (mean ± SD): mice, 10 mg/kg oral gavage
AR protein [1] = target: T1, AR protein (Homo sapiens, UniProt P10275); test: Multiplexed quantitative proteomics analysis in VCaP cells; type: cell-based; settings: 10 μM, 24 h
T1 sequence (P10275 1-920): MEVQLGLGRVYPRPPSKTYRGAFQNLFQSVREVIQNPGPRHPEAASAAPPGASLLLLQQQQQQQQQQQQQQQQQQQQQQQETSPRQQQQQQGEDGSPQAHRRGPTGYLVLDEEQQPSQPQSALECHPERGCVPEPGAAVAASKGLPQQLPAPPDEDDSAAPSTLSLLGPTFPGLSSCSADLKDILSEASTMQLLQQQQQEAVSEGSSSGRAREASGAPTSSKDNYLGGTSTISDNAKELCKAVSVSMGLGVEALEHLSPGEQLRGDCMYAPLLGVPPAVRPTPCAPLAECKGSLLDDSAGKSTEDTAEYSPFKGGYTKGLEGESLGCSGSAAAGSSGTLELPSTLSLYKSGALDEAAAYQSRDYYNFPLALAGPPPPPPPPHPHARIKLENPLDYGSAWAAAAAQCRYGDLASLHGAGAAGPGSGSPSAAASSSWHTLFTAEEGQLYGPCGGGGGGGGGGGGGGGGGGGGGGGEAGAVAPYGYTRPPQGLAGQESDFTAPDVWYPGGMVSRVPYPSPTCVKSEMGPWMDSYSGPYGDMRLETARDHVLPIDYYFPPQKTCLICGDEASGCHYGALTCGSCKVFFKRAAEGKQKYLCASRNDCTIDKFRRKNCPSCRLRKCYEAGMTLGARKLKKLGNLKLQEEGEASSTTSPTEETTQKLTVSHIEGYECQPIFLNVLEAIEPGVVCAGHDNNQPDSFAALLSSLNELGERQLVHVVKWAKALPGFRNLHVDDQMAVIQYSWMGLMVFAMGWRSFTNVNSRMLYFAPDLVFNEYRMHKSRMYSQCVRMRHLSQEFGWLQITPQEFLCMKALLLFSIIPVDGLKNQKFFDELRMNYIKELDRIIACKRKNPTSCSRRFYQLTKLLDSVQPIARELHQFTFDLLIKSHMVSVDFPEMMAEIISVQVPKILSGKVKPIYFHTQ

AR-LBD protein = target: T2, AR-LBD protein (Rattus norvegicus, UniProt P15207); test: AR fluorescence-polarization; type: binding
T2 sequence (P15207 651-882 limits assumed): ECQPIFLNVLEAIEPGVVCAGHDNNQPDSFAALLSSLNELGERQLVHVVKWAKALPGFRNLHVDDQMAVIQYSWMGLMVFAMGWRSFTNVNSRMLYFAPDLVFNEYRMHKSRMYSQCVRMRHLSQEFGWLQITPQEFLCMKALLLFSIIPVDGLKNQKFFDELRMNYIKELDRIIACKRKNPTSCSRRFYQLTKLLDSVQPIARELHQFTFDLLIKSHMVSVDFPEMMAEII

AR protein [2] = target: T1, AR protein; test: AR protein degradation in VCaP cells, Western blotting; type: cell-based; settings: VCaP and LNCaP cell lines
VCaP xenograft tumor = test: Antitumor activity in VCaP xenograft tumor model in SCID mice; type: in vivo, mouse; settings: all doses tested (3.75-25 mg/kg), entire experiment
KLK3 (PSA) gene = test: Suppression of KLK3; type: cell-based, human
PK study in rat = type: in vivo; settings: male, Sprague-Dawley, plasma, po, 10 mg/kg
PK study in mouse = type: in vivo; settings: male, ICR, plasma, po, 5 mg/kg
PK study in dog = type: in vivo; settings: male, beagle, plasma, po, 1 mg/kg
[3] = male, SCID, mouse, plasma, po, 10 mg/kg

Compound: 2-chloro-4-(8-(4-(4-(4-(2-(2,6-dioxopiperidin-3-yl)-1,3-dioxoisoindolin-5-yl)piperazin-1-yl)piperidin-1-yl)benzoyl)-2,8-diazaspiro[4.5]decan-2-yl)benzonitrile [Compound 20]
- Plasma drug concentration (mean ± SD) (Oral exposure in mice; 1 h): 82^b ng/ml
- Plasma drug concentration (mean ± SD) (Oral exposure in mice; 3 h): 57^b ng/ml
- Plasma drug concentration (mean ± SD) (Oral exposure in mice; 6 h): 91^b ng/ml
- Plasma drug concentration (mean ± SD) (Oral exposure in mice; 24 h): 3^b ng/ml

Compound: C[C@H]1CC2(CCN(c3ccc(C(=O)N4CCN(C)CC4)cc3)CC2)CN1c1ccc(C#N)c(Cl)c1 [ARi-12, (S)-2-chloro-4-(3-methyl-8-(4-(4-methylpiperazine-1-carbonyl)phenyl)-2,8-diazaspiro[4.5]decan-2-yl)benzonitrile]
- effect on protein levels (proteomics) (AR protein [1]): did not significantly alter the levels of any proteins analyzed

Compound: CN1CCN(c2ccc(C(=O)N3CCC4(CC3)CCN(c3ccc(C#N)c(Cl)c3)C4)cc2)CC1 [Compound 14b]
- times more potent than 14a in AR binding (AR-LBD protein; vs 14a): 2

Compound: N#Cc1ccc(N2CCC3(CCN(c4ccccc4)CC3)C2)cc1Cl [Compound 15a]
- IC50 (AR-LBD protein): > 1000 nM

Compound: N#Cc1ccc(N2CCC3(CCN(c4ccc(C(=O)N5CCCN(C6CCN(c7ccc8c(c7)C(=O)N(C7CCC(=O)NC7=O)C8=O)CC6)CC5)cc4)CC3)C2)cc1Cl (stereo not drawn) [Compound 21, 2-chloro-4-(8-(4-(4-(1-(2-(2,6-dioxopiperidin-3-yl)-1,3-dioxoisoindolin-5-yl)piperidin-4-yl)-1,4-diazepane-1-carbonyl)phenyl)-2,8-diazaspiro[4.5]decan-2-yl)benzonitrile]
- concentration at 1 h (Oral exposure in mice; [3]): 46 ± 16 ng/mL
- concentration at 3 h (Oral exposure in mice; [3]): 8 ± 1 ng/mL
- concentration at 6 h (Oral exposure in mice; [3]): 11 ± 3 ng/mL

Compound: N#Cc1ccc(N2CCC3(CCN(c4ccc(C(=O)N5CCN(C6CN(c7ccc8c(c7)C(=O)N(C7CCC(=O)NC7=O)C8=O)C6)CC5)cc4)CC3)C2)cc1Cl (stereo not drawn) [Compound 27, 2-chloro-4-(8-(4-(4-(1-(2-(2,6-dioxopiperidin-3-yl)-1,3-dioxoisoindolin-5-yl)azetidin-3-yl)piperazine-1-carbonyl)phenyl)-2,8-diazaspiro[4.5]decan-2-yl)benzonitrile]
- concentration at 1 h (Oral exposure in mice; [3]): 501 ng/mL
- concentration at 3 h (Oral exposure in mice; [3]): 171 ng/mL
- concentration at 6 h (Oral exposure in mice; [3]): 246 ng/mL
- concentration at 24 h (Oral exposure in mice; [3]): 44 ng/mL
- Plasma drug concentration (mean ± SD) (Oral exposure in mice; 1 h, 10 mg/kg): 501 ± 106 ng/mL
- Plasma drug concentration (mean ± SD) (Oral exposure in mice; 3 h, 10 mg/kg): 171 ± 83 ng/mL
- Plasma drug concentration (mean ± SD) (Oral exposure in mice; 6 h, 10 mg/kg): 246 ± 27 ng/mL
- Plasma drug concentration (mean ± SD) (Oral exposure in mice; 24 h, 10 mg/kg): 44 ± 5 ng/mL

Compound: C[C@H]1CC2(CCN(c3ccc(C(=O)N4CCN(C5CN(c6ccc7c(c6)C(=O)N(C6CCC(=O)NC6=O)C7=O)C5)CC4)cc3)CC2)CN1c1ccc(C#N)c(Cl)c1 (stereo partly drawn) [Compound 30, 2-chloro-4-((3S)-8-(4-(4-(1-(2-(2,6-dioxopiperidin-3-yl)-1,3-dioxoisoindolin-5-yl)azetidin-3-yl)piperazine-1-carbonyl)phenyl)-3-methyl-2,8-diazaspiro[4.5]decan-2-yl)benzonitrile]
- times more potent than ARV-110 in inducing AR degradation (AR protein [2]): 6-9
- signs of toxicity (VCaP xenograft tumor): no signs of toxicity
- times more potent than Enzalutamide in suppressing KLK3 gene expression (KLK3 (PSA) gene; VCaP and LNCaP cell lines): at least 30
- suppression of expression of KLK3 gene (KLK3 (PSA) gene; VCaP, 1 nM, 24 h): 51%
- AUC(0-t) (PK study in rat): 12800 ng·h/mL
- Cmax (PK study in rat): 1470 ng/mL
- AUC(0-t) (PK study in mouse): 11700 ng·h/mL
- Cmax (PK study in mouse): 1480 ng/mL
- AUC (PK study in dog): 1820 ng·h/mL
